Results: ChEMBL document CHEMBL1201862, “PubChem BioAssay data set” (2004)
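Assay format: 96-well plates, 48-hour exposure. Abbreviation: GI50, concentration required for 50% inhibition of growth.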 The source made the active and inactive calls. Cut-off read from the data, not from the text of the source: active = GI50 up to about 1.1 µM and inactive = higher.

Experiments:
Test in all cases: NCI-60 cell line screen, 48 h
[1] = system: 786-0
[2] = system: A498
[3] = system: A549
[4] = system: ACHN
[5] = system: BT-549
[6] = system: CAKI-1
[7] = system: CCRF-CEM
[8] = system: COLO 205
[9] = system: DU-145
[10] = system: EKVX
[11] = system: HCC 2998
[12] = system: HCT-116
[13] = system: HCT-15
[14] = system: HL-60
[15] = system: HOP-62
[16] = system: HOP-92
[17] = system: HT-29
[18] = system: Hs-578T
[19] = system: IGROV-1
[20] = system: K562
[21] = system: KM12
[22] = system: LOX IMVI
[23] = system: MCF7
[24] = system: MDA-MB-231
[25] = system: MDA-MB-435
[26] = system: MDA-N
[27] = system: MOLT-4
[28] = system: Malme-3M
[29] = system: NCI-H226
[30] = system: NCI-H23
[31] = system: NCI-H460
[32] = system: NCI-H522
[33] = system: NCI/ADR-RES
[34] = system: OVCAR-3
[35] = system: OVCAR-4
[36] = system: OVCAR-5
[37] = system: OVCAR-8
[38] = system: PC-3
[39] = system: RPMI-8226
[40] = system: RXF 393
[41] = system: SF-268
[42] = system: SF-295
[43] = system: SF-539
[44] = system: SK-MEL-28
[45] = system: SK-MEL-5
[46] = system: SN12C
[47] = system: SNB-19
[48] = system: SNB-75
[49] = system: SR
[50] = system: SW-620
[51] = system: TK-10
[52] = system: U-251
[53] = system: UACC-257
[54] = system: UO-31
[55] = system: M14
[56] = system: SK-MEL-2
[57] = system: SK-OV-3
[58] = system: T47D
[59] = system: UACC-62

## O=C(Nc1nc(C23CC4CC(CC(C4)C2)C3)cs1)c1cc2ccccc2oc1=O
[1]
  GI50: > 100 µM (inactive)
[2]
  GI50: > 100 µM (inactive)
[3]
  GI50: 38.2 µM (inactive)
[4]
  GI50: > 100 µM (inactive)
[5]
  GI50: > 100 µM (inactive)
[6]
  GI50: > 100 µM (inactive)
[7]
  GI50: > 100 µM (inactive)
[8]
  GI50: > 100 µM (inactive)
[9]
  GI50: > 100 µM (inactive)
[10]
  GI50: > 100 µM (inactive)
[11]
  GI50: > 100 µM (inactive)
[12]
  GI50: > 100 µM (inactive)
[13]
  GI50: > 100 µM
[14]
  GI50: > 100 µM (inactive)
[15]
  GI50: > 100 µM (inactive)
[16]
  GI50: > 100 µM (inactive)
[17]
  GI50: > 100 µM (inactive)
[18]
  GI50: > 100 µM (inactive)
[19]
  GI50: > 100 µM (inactive)
[20]
  GI50: > 100 µM (inactive)
[21]
  GI50: > 100 µM (inactive)
[22]
  GI50: > 100 µM (inactive)
[23]
  GI50: > 100 µM (inactive)
[24]
  GI50: > 100 µM (inactive)
[25]
  GI50: > 100 µM (inactive)
[26]
  GI50: > 100 µM (inactive)
[27]
  GI50: > 100 µM (inactive)
[28]
  GI50: > 100 µM (inactive)
[29]
  GI50: > 100 µM (inactive)
[30]
  GI50: > 100 µM (inactive)
[31]
  GI50: > 100 µM (inactive)
[32]
  GI50: > 100 µM (inactive)
[33]
  GI50: > 100 µM (inactive)
[34]
  GI50: > 100 µM (inactive)
[35]
  GI50: > 100 µM (inactive)
[36]
  GI50: > 100 µM (inactive)
[37]
  GI50: > 100 µM (inactive)
[38]
  GI50: > 100 µM (inactive)
[39]
  GI50: > 100 µM (inactive)
[40]
  GI50: > 100 µM (inactive)
[41]
  GI50: > 100 µM (inactive)
[42]
  GI50: > 100 µM (inactive)
[43]
  GI50: > 100 µM (inactive)
[44]
  GI50: > 100 µM (inactive)
[45]
  GI50: > 100 µM (inactive)
[46]
  GI50: > 100 µM (inactive)
[47]
  GI50: > 100 µM (inactive)
[48]
  GI50: > 100 µM (inactive)
[49]
  GI50: > 100 µM (inactive)
[50]
  GI50: > 100 µM (inactive)
[51]
  GI50: > 100 µM (inactive)
[52]
  GI50: > 100 µM (inactive)
[53]
  GI50: > 100 µM (inactive)
[54]
  GI50: > 100 µM (inactive)

## O=C1CCCCC(=O)OC2(CCCCC2=O)CC1 (stereo not drawn)
[1]
  GI50: > 100 µM (inactive)
[2]
  GI50: > 100 µM (inactive)
[3]
  GI50: > 100 µM (inactive)
[4]
  GI50: > 100 µM (inactive)
[5]
  GI50: > 100 µM (inactive)
[6]
  GI50: > 100 µM (inactive)
[7]
  GI50: > 100 µM (inactive)
[8]
  GI50: > 100 µM (inactive)
[9]
  GI50: > 100 µM (inactive)
[11]
  GI50: > 100 µM (inactive)
[12]
  GI50: > 100 µM (inactive)
[13]
  GI50: > 100 µM
[15]
  GI50: > 100 µM (inactive)
[16]
  GI50: > 100 µM (inactive)
[17]
  GI50: > 100 µM (inactive)
[19]
  GI50: > 100 µM (inactive)
[20]
  GI50: > 100 µM (inactive)
[21]
  GI50: > 100 µM (inactive)
[55]
  GI50: > 100 µM (inactive)
[23]
  GI50: > 100 µM (inactive)
[24]
  GI50: > 100 µM (inactive)
[25]
  GI50: > 100 µM (inactive)
[26]
  GI50: > 100 µM (inactive)
[27]
  GI50: > 100 µM (inactive)
[28]
  GI50: > 100 µM (inactive)
[29]
  GI50: > 100 µM (inactive)
[30]
  GI50: > 100 µM (inactive)
[31]
  GI50: > 100 µM (inactive)
[32]
  GI50: > 100 µM (inactive)
[33]
  GI50: > 100 µM (inactive)
[34]
  GI50: > 100 µM (inactive)
[35]
  GI50: > 100 µM (inactive)
[36]
  GI50: > 100 µM (inactive)
[37]
  GI50: > 100 µM (inactive)
[38]
  GI50: > 100 µM (inactive)
[39]
  GI50: > 100 µM (inactive)
[40]
  GI50: > 100 µM (inactive)
[41]
  GI50: > 100 µM (inactive)
[42]
  GI50: > 100 µM (inactive)
[43]
  GI50: > 100 µM (inactive)
[44]
  GI50: > 100 µM (inactive)
[56]
  GI50: > 100 µM (inactive)
[45]
  GI50: > 100 µM (inactive)
[57]
  GI50: > 100 µM (inactive)
[46]
  GI50: > 100 µM (inactive)
[48]
  GI50: 5.82 µM (inactive)
[49]
  GI50: > 100 µM (inactive)
[50]
  GI50: > 100 µM (inactive)
[58]
  GI50: > 100 µM (inactive)
[51]
  GI50: > 100 µM (inactive)
[52]
  GI50: > 100 µM (inactive)
[53]
  GI50: > 100 µM (inactive)
[59]
  GI50: > 100 µM (inactive)
[54]
  GI50: > 100 µM (inactive)
